# Data from ChEMBL document CHEMBL1641589, “Phosphoramidate pronucleotides of cytostatic 6-aryl-7-deazapurine ribonucleosides” (Bioorg Med Chem, 2011).
# Tests used:
# DU-145 = test: Cytotoxicity against human DU145 cells after 5 days by SRB assay; assay type: functional; conditions: DU-145, 120 h
# CCRF-CEM [1] = test: Cytotoxicity against human CCRF-CEM cells after 3 days by XTT assay; assay type: functional, cell-based; conditions: 72 h
# HL-60 = test: Cytotoxicity against human HL60 cells after 5 days by SRB assay; assay type: functional; conditions: HL-60, 120 h
# NCI-H23 = test: Cytotoxicity against human NCI-H23 cells after 5 days by SRB assay; assay type: functional; conditions: NCI-H23, 120 h
# [2] = Cytotoxicity against human Hs578 cells after 5 days by SRB assay; assay type: functional; conditions: Hs578, 120 h
# HepG2 = test: Cytotoxicity against human HepG2 cells after 3 days by XTT assay; assay type: functional, cell-based; conditions: HepG2, 72 h
# [3] = Cytotoxicity against human HeLaS3 cells after 3 days by XTT assay; assay type: functional, cell-based; conditions: HeLa S3, 72 h
# HCT-116 = test: Cytotoxicity against human HCT116 cells after 5 days by SRB assay; assay type: functional; conditions: HCT-116, 120 h
# CCRF-CEM [4] = test: Cell cycle arrest in human CCRF-CEM cells assessed as accumulation at S phase at IC50 concentration using propidium iodide staining by flow cytometry relative to control; assay type: functional
# CCRF-CEM [5] = test: Cell cycle arrest in human CCRF-CEM cells assessed as accumulation at G1 phase at IC50 concentration using propidium iodide staining by flow cytometry relative to control; assay type: functional
# CCRF-CEM [6] = test: Cell cycle arrest in human CCRF-CEM cells assessed as accumulation at G2/M phase at IC50 concentration using propidium iodide staining by flow cytometry relative to control; assay type: functional
# CCRF-CEM [7] = test: Cell cycle arrest in human CCRF-CEM cells assessed as increased of cellular debris level at IC50 concentration using propidium iodide staining by flow cytometry relative to control; assay type: functional
# [8] = Efflux ratio of permeability from basolateral to apical side over apical to basolateral side in human Caco2 cells at 10 uM after 60 to 120 mins by HPLC analysis; assay type: ADME, cell-based; conditions: Caco-2
# [9] = Permeability from basolateral to apical side of human Caco2 cells at 10 uM after 60 to 120 mins by HPLC analysis; assay type: ADME, cell-based; conditions: Caco-2
# [10] = Permeability from apical to basolateral side at 10 uM after 60 to 120 mins by HPLC analysis; assay type: ADME; conditions: not told
# [11] = Permeability from apical to basolateral side of human Caco2 cells at 10 uM after 60 to 120 mins by HPLC analysis; assay type: ADME, cell-based; conditions: Caco-2
Structure (SMILES),GI50 (DU-145) [µM],IC50 (CCRF-CEM [1]) [µM],GI50 (HL-60) [µM],GI50 (NCI-H23) [µM],GI50 [2] [µM],IC50 (HepG2) [nM],IC50 [3] [µM],GI50 (HCT-116) [µM],Activity (CCRF-CEM [4]) [%],Activity (CCRF-CEM [5]) [%],Activity (CCRF-CEM [6]) [%],Activity (CCRF-CEM [7]) [%],efflux ratio at 10 µM [8],Papp B→A at 10 µM [9] [×10⁻⁶ cm/s],Papp A→B at 10 µM [10] [×10⁻⁶ cm/s],Papp A→B at 10 µM [11] [×10⁻⁶ cm/s]
COC(=O)[C@H](C)NP(=O)(OC[C@H]1O[C@@H](n2ccc3c(-c4ccoc4)ncnc32)[C@H](O)[C@@H]1O)Oc1ccccc1 (stereo partly specified),3.86,> 10,> 10,> 10,> 10,3610,7.84,7.95,,,,,,,,
CCOC(=O)[C@H](C)NP(=O)(OC[C@H]1O[C@@H](n2ccc3c(-c4ccoc4)ncnc32)[C@H](O)[C@@H]1O)Oc1ccccc1 (stereo partly specified),9.05,> 10,> 10,8.28,5.97,2960,4.89,9.06,,,,,,,,
C[C@H](NP(=O)(OC[C@H]1O[C@@H](n2ccc3c(-c4ccoc4)ncnc32)[C@H](O)[C@@H]1O)Oc1ccccc1)C(=O)OCc1ccccc1 (stereo partly specified),1.09,3.11,> 10,5.19,1.1,2010,1.31,1.42,54,37.5,8.4,21.5,,,,
COC(=O)[C@H](C)NP(=O)(OC[C@H]1O[C@@H](n2ccc3c(-c4cccs4)ncnc32)[C@H](O)[C@@H]1O)Oc1ccccc1 (stereo partly specified),3.23,8.47,> 10,6.79,6.59,1410,2.51,6.22,,,,,13.3,9.75,35.1,0.74
CCOC(=O)[C@H](C)NP(=O)(OC[C@H]1O[C@@H](n2ccc3c(-c4cccs4)ncnc32)[C@H](O)[C@@H]1O)Oc1ccccc1 (stereo partly specified),> 10,> 10,> 10,10.9,9.6,1530,5.93,> 10,,,,,12.7,9.62,33.8,0.76
C[C@H](NP(=O)(OC[C@H]1O[C@@H](n2ccc3c(-c4cccs4)ncnc32)[C@H](O)[C@@H]1O)Oc1ccccc1)C(=O)OCc1ccccc1 (stereo partly specified),0.989,2.09,,5.12,1.42,880,1.56,0.68,57.9,30.7,11.5,49.5,12,13.2,29.9,1.1
CCOC(=O)[C@H](C)NP(=O)(OC[C@H]1O[C@@H](n2ccc3c(-c4ccsc4)ncnc32)[C@H](O)[C@@H]1O)Oc1ccccc1 (stereo partly specified),> 10,> 10,> 10,> 10,> 10,> 10000,> 10,> 10,,,,,,,,
C[C@H](NP(=O)(OC[C@H]1O[C@@H](n2ccc3c(-c4ccsc4)ncnc32)[C@H](O)[C@@H]1O)Oc1ccccc1)C(=O)OCc1ccccc1 (stereo partly specified),3.57,> 10,> 10,7.44,7.56,4580,5.45,7.51,54.2,35.9,9.9,22.2,,,,
COC(=O)[C@H](C)NP(=O)(OC[C@H]1O[C@@H](n2ccc3c(-c4ccccc4)ncnc32)[C@H](O)[C@@H]1O)Oc1ccccc1 (stereo partly specified),> 10,> 10,> 10,> 10,> 10,> 10000,> 10,> 10,,,,,,,,
CCOC(=O)[C@H](C)NP(=O)(OC[C@H]1O[C@@H](n2ccc3c(-c4ccccc4)ncnc32)[C@H](O)[C@@H]1O)Oc1ccccc1 (stereo partly specified),,> 10,> 10,,> 10,> 10000,> 10,> 10,,,,,,,,
C[C@H](NP(=O)(OC[C@H]1O[C@@H](n2ccc3c(-c4ccccc4)ncnc32)[C@H](O)[C@@H]1O)Oc1ccccc1)C(=O)OCc1ccccc1 (stereo partly specified),,> 10,5.65,,> 10,> 10000,> 10,> 10,,,,,,,,
COC(=O)[C@H](C)NP(=O)(OC[C@H]1O[C@@H](n2ccc3c(-c4cccc5c4oc4ccccc45)ncnc32)[C@H](O)[C@@H]1O)Oc1ccccc1 (stereo partly specified),,> 10,> 10,,> 10,> 10000,> 10,> 10,,,,,,,,
CCOC(=O)[C@H](C)NP(=O)(OC[C@H]1O[C@@H](n2ccc3c(-c4cccc5c4oc4ccccc45)ncnc32)[C@H](O)[C@@H]1O)Oc1ccccc1 (stereo partly specified),,> 10,> 10,,> 10,> 10000,> 10,> 10,,,,,,,,
C[C@H](NP(=O)(OC[C@H]1O[C@@H](n2ccc3c(-c4cccc5c4oc4ccccc45)ncnc32)[C@H](O)[C@@H]1O)Oc1ccccc1)C(=O)OCc1ccccc1 (stereo partly specified),,> 10,> 10,,> 10,> 10000,> 10,> 10,,,,,,,,
OC[C@H]1O[C@@H](n2ccc3c(-c4cccc5c4oc4ccccc45)ncnc32)[C@H](O)[C@@H]1O,,> 10,> 10,,> 10,> 10000,> 10,> 10,,,,,,,,
OC[C@H]1O[C@@H](n2ccc3c(-c4ccoc4)ncnc32)[C@H](O)[C@@H]1O,,,1.5,,,1720,,,,,,,,,,
OC[C@H]1O[C@@H](n2ccc3c(-c4ccsc4)ncnc32)[C@H](O)[C@@H]1O,,,> 40,,,3220,,,,,,,,,,
OC[C@H]1O[C@@H](n2ccc3c(-c4ccco4)ncnc32)[C@H](O)[C@@H]1O,,,0.81,,,470,,,,,,,,,,
OC[C@H]1O[C@@H](n2ccc3c(-c4ccccc4)ncnc32)[C@H](O)[C@@H]1O,0.075,1,,,3.1,> 10000,4.1,5.7,,,,,,,,
OC[C@H]1O[C@@H](n2ccc3c(-c4cccs4)ncnc32)[C@H](O)[C@@H]1O,,8.8,1.2,,,1190,0.29,,,,,,5.9,9.31,34.1,1.57
